# Laboratory results: patent US11840686B2, “Modulation of prekallikrein (PKK) expression” (Ionis Pharmaceuticals, Inc., priority 2013, dated 2023)
# Strand notation (5' to 3'): a small letter for the sugar, then the base; units joined by * are phosphorothioate-linked, units joined directly phosphodiester-linked; [ ] holds rarer units or linkages, { } end groups; capitals alone tell only the bases. e = 2'-O-(2-methoxyethyl) (MOE); k = constrained ethyl (cEt); [5mC] = 5-methylcytosine; d = 2'-deoxy (DNA)
# Test system: human PKK mRNA
# Experiment: Antisense inhibition of human PKK mRNA in HepaRG cells, 1,000 nM, MOE/deoxy/cEt oligonucleotides (Example 3)
# Type: cell-based
# Conditions: HepaRG cells, electroporation with 1,000 nM antisense oligonucleotide, approx. 24 hours, PKK mRNA by RT-PCR (RTS3454), relative to untreated control cells
# Outline: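 Readout is percent PKK mRNA reduction against untreated controls, by real-time PCR (RTS3454) adjusted for total RNA via RIBOGREEN. Oligonucleotides, phosphorothioate gapmers of 16 nucleosides with cEt, MOE and deoxy sugars, were delivered at 1,000 nM by electroporation to 20,000 HepaRG cells/well for roughly 24 h.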
Substance,% inhibition (Table 25 experiment),% inhibition (Table 26 experiment)
548209 (e[5mC]*eA*kA*dT*d[5mC]*dT*d[5mC]*dT*dG*dG*dT*d[5mC]*dA*kA*kT*e[5mC]; antisense) [compound 548209],57%,
548210 (e[5mC]*eA*kA*d[5mC]*dA*dA*dT*d[5mC]*dT*d[5mC]*dT*dG*dG*kT*k[5mC]*eA; antisense) [compound 548210],55%,
548211 (eA*e[5mC]*k[5mC]*dA*dA*d[5mC]*dA*dA*dT*d[5mC]*dT*d[5mC]*dT*kG*kG*eT; antisense) [compound 548211],51%,
548212 (eA*eG*k[5mC]*d[5mC]*d[5mC]*dA*d[5mC]*d[5mC]*dA*dA*d[5mC]*dA*dA*kT*k[5mC]*eT; antisense) [compound 548212],44%,
548213 (eG*eA*k[5mC]*dA*dG*d[5mC]*d[5mC]*d[5mC]*dA*d[5mC]*d[5mC]*dA*dA*k[5mC]*kA*eA; antisense) [compound 548213],70%,
548214 (e[5mC]*eA*kG*dA*d[5mC]*dA*dG*d[5mC]*d[5mC]*d[5mC]*dA*d[5mC]*d[5mC]*kA*kA*e[5mC]; antisense) [compound 548214],55%,
548215 (eG*e[5mC]*kA*dT*dA*dG*dA*d[5mC]*d[5mC]*d[5mC]*d[5mC]*dA*dA*k[5mC]*kA*eG; antisense) [compound 548215],61%,
548216 (eG*eT*kG*d[5mC]*dA*dT*dA*dG*dA*d[5mC]*d[5mC]*d[5mC]*d[5mC]*kA*kA*e[5mC]; antisense) [compound 548216],45%,
548218 (eT*e[5mC]*k[5mC]*dT*dG*dT*dG*d[5mC]*dA*dT*dA*dG*dA*k[5mC]*k[5mC]*e[5mC]; antisense) [compound 548218],59%,
548219 (eG*eA*kA*dA*dT*d[5mC]*d[5mC]*dT*dG*dT*dG*d[5mC]*dA*kT*kA*eG; antisense) [compound 548219],8%,
548221 (eA*e[5mC]*kT*d[5mC]*d[5mC]*dA*dG*d[5mC]*dA*dG*dA*dA*dA*kT*k[5mC]*e[5mC]; antisense) [compound 548221],49%,
548222 (eA*eA*kT*d[5mC]*dA*dT*dG*d[5mC]*d[5mC]*dT*dT*dG*dT*kG*kG*eG; antisense) [compound 548222],32%,
548223 (eT*eA*kG*dA*d[5mC]*d[5mC]*d[5mC]*dA*dG*dA*dA*dT*d[5mC]*kA*kT*eG; antisense) [compound 548223],50%,
548224 (e[5mC]*e[5mC]*kA*dT*dA*dG*dA*d[5mC]*d[5mC]*d[5mC]*dA*dG*dA*kA*kT*e[5mC]; antisense) [compound 548224],20%,
548225 (eA*eG*kT*d[5mC]*dA*d[5mC]*d[5mC]*dA*dT*dA*dG*dA*d[5mC]*k[5mC]*k[5mC]*eA; antisense) [compound 548225],48%,
548226 (eT*eA*kA*dG*dT*d[5mC]*dA*d[5mC]*d[5mC]*dA*dT*dA*dG*kA*k[5mC]*e[5mC]; antisense) [compound 548226],39%,
548227 (eG*eT*kG*dG*d[5mC]*d[5mC]*d[5mC]*dT*d[5mC]*dT*dT*dA*dA*kG*kT*e[5mC]; antisense) [compound 548227],0%,
548228 (eG*eT*kT*dG*dT*dG*dT*dG*dG*d[5mC]*d[5mC]*d[5mC]*dT*k[5mC]*kT*eT; antisense) [compound 548228],,37%
548229 (e[5mC]*eA*kT*dT*dG*dT*dT*dG*dT*dG*dT*dG*dG*k[5mC]*k[5mC]*e[5mC]; antisense) [compound 548229],,31%
548230 (eT*eA*k[5mC]*dT*d[5mC]*dA*dT*dT*dG*dT*dT*dG*dT*kG*kT*eG; antisense) [compound 548230],,10%
548231 (eA*eA*kT*dA*d[5mC]*dT*d[5mC]*dA*dT*dT*dG*dT*dT*kG*kT*eG; antisense) [compound 548231],,11%
548232 (eG*e[5mC]*k[5mC]*dA*dT*dA*d[5mC]*dA*dT*d[5mC]*dT*dG*dA*kG*kG*eA; antisense) [compound 548232],,3%
548233 (eA*eT*kT*dG*dT*dA*dG*d[5mC]*d[5mC]*dA*dT*dA*d[5mC]*kA*kT*e[5mC]; antisense) [compound 548233],,38%
548234 (eT*eT*kA*dT*dT*dG*dT*dA*dG*d[5mC]*d[5mC]*dA*dT*kA*k[5mC]*eA; antisense) [compound 548234],,17%
548235 (eT*e[5mC]*kT*dA*dG*dA*dT*dG*dA*d[5mC]*d[5mC]*dT*dG*kA*kA*eG; antisense) [compound 548235],,0%
548236 (eT*eA*k[5mC]*dA*dT*d[5mC]*dT*dA*dG*dA*dT*dG*dA*k[5mC]*k[5mC]*eT; antisense) [compound 548236],,37%

Substance,% inhibition (Table 25 experiment),% inhibition (Table 26 experiment)
548237 (eG*eT*kA*dT*dA*d[5mC]*dA*dT*d[5mC]*dT*dA*dG*dA*kT*kG*eA; antisense) [compound 548237],,22%
548238 (eA*e[5mC]*kT*d[5mC]*dG*d[5mC]*d[5mC]*dT*dT*dT*dG*dT*dG*kA*k[5mC]*eT; antisense) [compound 548238],,31%
548239 (eT*eA*k[5mC]*dT*d[5mC]*dG*d[5mC]*d[5mC]*dT*dT*dT*dG*dT*kG*kA*e[5mC]; antisense) [compound 548239],,18%
548240 (eA*eT*kA*d[5mC]*dT*d[5mC]*dG*d[5mC]*d[5mC]*dT*dT*dT*dG*kT*kG*eA; antisense) [compound 548240],,3%
548241 (e[5mC]*eA*kT*dA*d[5mC]*dT*d[5mC]*dG*d[5mC]*d[5mC]*dT*dT*dT*kG*kT*eG; antisense) [compound 548241],,1%
548242 (eG*e[5mC]*kA*dT*dA*d[5mC]*dT*d[5mC]*dG*d[5mC]*d[5mC]*dT*dT*kT*kG*eT; antisense) [compound 548242],,25%
548243 (eA*eT*kG*d[5mC]*dA*dT*dA*d[5mC]*dT*d[5mC]*dG*d[5mC]*d[5mC]*kT*kT*eT; antisense) [compound 548243],,0%
548244 (e[5mC]*eA*kT*dG*d[5mC]*dA*dT*dA*d[5mC]*dT*d[5mC]*dG*d[5mC]*k[5mC]*kT*eT; antisense) [compound 548244],,51%
548245 (e[5mC]*e[5mC]*kA*dT*dG*d[5mC]*dA*dT*dA*d[5mC]*dT*d[5mC]*dG*k[5mC]*k[5mC]*eT; antisense) [compound 548245],,31%
548246 (eT*eT*k[5mC]*d[5mC]*dA*dT*dG*d[5mC]*dA*dT*dA*d[5mC]*dT*k[5mC]*kG*e[5mC]; antisense) [compound 548246],,46%
548248 (antisense eT*eG*k[5mC]*dG*dA*dT*dT*dT*dT*d[5mC]*d[5mC]*dA*dT*kG*k[5mC]*eA) [compound 548248],,13%
548249 (antisense eT*eG*kT*dG*dA*dT*dG*d[5mC]*dG*dA*dT*dT*dT*kT*k[5mC]*e[5mC]) [compound 548249],,22%
548250 (antisense e[5mC]*eT*kT*dT*dG*dT*dG*dA*dT*dG*d[5mC]*dG*dA*kT*kT*eT) [compound 548250],,0%
548251 (antisense eG*e[5mC]*k[5mC]*dT*dT*dT*dG*dT*dG*dA*dT*dG*d[5mC]*kG*kA*eT) [compound 548251],,13%
548252 (antisense eA*e[5mC]*kT*d[5mC]*dG*d[5mC]*d[5mC]*dT*dT*dT*dG*dT*dG*kA*kT*eG) [compound 548252],,33%
548253 (antisense eT*eA*k[5mC]*dT*d[5mC]*dG*d[5mC]*d[5mC]*dT*dT*dT*dG*dT*kG*kA*eT) [compound 548253],,8%
548254 (antisense e[5mC]*e[5mC]*k[5mC]*dA*dT*dG*d[5mC]*dA*dT*dA*d[5mC]*dT*d[5mC]*kG*k[5mC]*e[5mC]) [compound 548254],,39%
548255 (antisense e[5mC]*e[5mC]*k[5mC]*d[5mC]*dA*dT*dG*d[5mC]*dA*dT*dA*d[5mC]*dT*k[5mC]*kG*e[5mC]) [compound 548255],,38%
548256 (antisense eG*e[5mC]*kT*d[5mC]*d[5mC]*d[5mC]*d[5mC]*dA*dT*dG*d[5mC]*dA*dT*kA*k[5mC]*eT) [compound 548256],,25%
548257 (antisense eA*eG*kT*dG*d[5mC]*dT*d[5mC]*d[5mC]*d[5mC]*d[5mC]*dA*dT*dG*k[5mC]*kA*eT) [compound 548257],,2%
548258 (antisense e[5mC]*eA*kA*dG*dT*dG*d[5mC]*dT*d[5mC]*d[5mC]*d[5mC]*d[5mC]*dA*kT*kG*e[5mC]) [compound 548258],,0%
548259 (antisense eG*eT*kG*dA*dT*dG*dA*dA*dA*dG*dT*dA*d[5mC]*kA*kG*e[5mC]) [compound 548259],,45%
548260 (antisense eA*eG*kG*dA*dG*dT*dT*dT*dG*dT*d[5mC]*dA*dG*kA*kA*e[5mC]) [compound 548260],,28%
548261 (antisense eT*eT*k[5mC]*dA*dG*dG*dG*dA*dG*dT*dG*dA*dT*kG*kT*e[5mC]) [compound 548261],,36%
548262 (antisense e[5mC]*e[5mC]*kT*dA*dT*d[5mC]*d[5mC]*dG*dT*dG*dT*dT*d[5mC]*kA*kG*e[5mC]) [compound 548262],,73%
548263 (antisense e[5mC]*eT*k[5mC]*dT*dA*d[5mC]*dA*dT*dA*d[5mC]*dT*d[5mC]*dA*kG*kG*eA) [compound 548263],,62%
